This note sets out measurements from US11274090B2, “P300/CBP HAT inhibitors” (Constellation Pharmaceuticals, Inc., priority 2018, dated 2022).

The target of the experiment is p300 HAT domain (residues 1287-1666) (Homo sapiens (Human), UniProt Q09472). As to the kind of experiment: p300 HAT SPA assay (scintillation proximity assay, acetylation of biotinylated H3(1-21) peptide). The experiment is classed as biochemical. To be noted: average of at least 2 replicate titrations. Put shortly:
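Purified p300 HAT domain reaction transferred to streptavidin plates to capture biotinylated H3(1-21) peptide, incubated 1.5 hr at RT, and read by scintillation proximity. IC50 values derived from concentration-response data.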
(In a scintillation proximity assay essentially only radioactivity close to the scintillant gives light.)

As usually defined, the IC50 is the concentration at which inhibition is half-maximal. A higher IC50 goes with weaker potency.

Sequence of p300 HAT domain (residues 1287-1666) (Q09472 1287-1666): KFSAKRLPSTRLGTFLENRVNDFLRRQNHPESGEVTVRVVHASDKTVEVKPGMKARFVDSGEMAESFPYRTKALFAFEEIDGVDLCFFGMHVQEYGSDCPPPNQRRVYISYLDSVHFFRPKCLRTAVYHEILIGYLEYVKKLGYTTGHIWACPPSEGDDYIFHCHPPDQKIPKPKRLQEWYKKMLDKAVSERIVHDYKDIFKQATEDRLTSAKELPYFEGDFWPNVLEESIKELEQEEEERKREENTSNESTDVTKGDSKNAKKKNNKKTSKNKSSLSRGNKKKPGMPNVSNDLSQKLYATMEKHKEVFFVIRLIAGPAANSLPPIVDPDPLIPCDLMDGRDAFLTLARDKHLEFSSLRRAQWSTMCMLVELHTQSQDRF

The compound `N#Cc1ccc(CCNC(C(=O)Nc2ccc(N3CCC4(COC4)C3)cn2)c2ccccc2)cc1` (single isomer, unassigned) [96 Isomer 2] registered an IC50 above 2000 nM.

`Cn1cc(-c2ccc(NC(=O)C(NCC3(c4ccc(Cl)cc4)CC3)c3ccccc3)nc2)cn1` (single isomer, unassigned) [97 Isomer 1] returned an IC50 of 191 nM.

The compound `Cn1cc(-c2ccc(NC(=O)C(NCC3(c4ccc(Cl)cc4)CC3)c3ccccc3)nc2)cn1` (single isomer, unassigned) [97 Isomer 2] gave an IC50 above 2000 nM.

Regarding `CC(CNC(C(=O)Nc1ccc(-c2cnn(C)n2)cn1)c1ccccc1)c1ccc(C#N)cc1` (single isomer, unassigned) [98 Isomer 1], the IC50 is 571 nM.

For the compound `CC(CNC(C(=O)Nc1ccc(-c2cnn(C)n2)cn1)c1ccccc1)c1ccc(C#N)cc1` (single isomer, unassigned) [98 Isomer 3], the IC50 was above 2000 nM.

Turning to `CC(CNC(C(=O)Nc1ccc(-c2cnn(C)n2)cn1)c1ccccc1)c1ccc(C#N)cc1` (single isomer, unassigned) [98 Isomer 4], the IC50 is 1460 nM.

For `CC(CNC(C(=O)Nc1ccc(-c2cnn(C)n2)cn1)c1ccccc1)c1ccc(C(F)(F)F)cc1` (single isomer, unassigned) [99 Isomer 1], the IC50 is 869 nM.

For `CC(CNC(C(=O)Nc1ccc(-c2cnn(C)n2)cn1)c1ccccc1)c1ccc(C(F)(F)F)cc1` (single isomer, unassigned) [99 Isomer 2], half-maximal inhibition (IC50) required 1020 nM.

As to `CC(CNC(C(=O)Nc1ccc(-c2cnn(C)n2)cn1)c1ccccc1)c1ccc(C(F)(F)F)cc1` (single isomer, unassigned) [99 Isomer 3], the IC50 was above 2000 nM.

As to `CC(CNC(C(=O)Nc1ccc(-c2cnn(C)n2)cn1)c1ccccc1)c1ccc(C(F)(F)F)cc1` (single isomer, unassigned) [99 Isomer 4], the IC50 was 28.3 nM.

In turn, `CC(CNC(C(=O)Nc1ccc(-c2cn(C)nn2)cn1)c1ccccc1)c1ccc(C#N)cc1` (single isomer, unassigned) [100 Isomer 1] returned an IC50 of 668 nM.

Consider `CC(CNC(C(=O)Nc1ccc(-c2cn(C)nn2)cn1)c1ccccc1)c1ccc(C#N)cc1` (single isomer, unassigned) [100 Isomer 3], for which the IC50 is above 2000 nM.

`CC(CNC(C(=O)Nc1ccc(-c2cn(C)nn2)cn1)c1ccccc1)c1ccc(C#N)cc1` (single isomer, unassigned) [100 Isomer 4] had an IC50 above 2000 nM.

As for `CC(CNC(C(=O)Nc1ccc(N2CCN(C)C(=O)C2)cn1)c1ccccc1)c1ccc(C#N)cc1` (single isomer, unassigned) [101 Isomer 2], the midpoint of inhibition, the IC50, lay at 245 nM.

Take `CC(CNC(C(=O)Nc1ccc(N2CCN(C)C(=O)C2)cn1)c1ccccc1)c1ccc(C#N)cc1` (single isomer, unassigned) [101 Isomer 3]: the IC50 came out at 355 nM.

On to `CC(CNC(C(=O)Nc1ccc(N2CCN(C)C(=O)C2)cn1)c1ccccc1)c1ccc(C#N)cc1` (single isomer, unassigned) [101 Isomer 4], for which the IC50 is above 2000 nM.

On to `CCN1CCN(c2ccc(NC(=O)C(NC[C@@H](C)c3ccc(C#N)cc3)c3ccccc3)nc2)CC1=O` (single isomer, unassigned) [102 Isomer 1], for which the IC50 came to 30.8 nM.

`CCN1CCN(c2ccc(NC(=O)C(NC[C@@H](C)c3ccc(C#N)cc3)c3ccccc3)nc2)CC1=O` (single isomer, unassigned) [102 Isomer 2] yielded an IC50 of 1550 nM.

Take `CC(CNC(C(=O)Nc1ccc(N2CCN(CC(F)(F)F)C(=O)C2)cn1)c1ccccc1)c1ccc(C#N)cc1` (single isomer, unassigned) [103 Isomer 1]: the IC50 was above 2000 nM.

The compound `CC(CNC(C(=O)Nc1ccc(N2CCN(CC(F)(F)F)C(=O)C2)cn1)c1ccccc1)c1ccc(C#N)cc1` (single isomer, unassigned) [103 Isomer 2] returned an IC50 of 14.3 nM.

In turn, `CC(CNC(C(=O)Nc1ccc(N2CCN(CC(F)(F)F)C(=O)C2)cn1)c1ccccc1)c1ccc(C#N)cc1` (single isomer, unassigned) [103 Isomer 3] showed an IC50 of 1000 nM.

As for `CC(CNC(C(=O)Nc1ccc(N2CCN(CC(F)(F)F)C(=O)C2)cn1)c1ccccc1)c1ccc(C#N)cc1` (single isomer, unassigned) [103 Isomer 4], the IC50 was above 2000 nM.

`CC(CNC(C(=O)Nc1ccc(-c2cn[nH]c2)cn1)c1ccccc1)c1ccc(C#N)cc1` (single isomer, unassigned) [104 Isomer 1] registered an IC50 of 1370 nM.

As to `CC(CNC(C(=O)Nc1ccc(-c2cn[nH]c2)cn1)c1ccccc1)c1ccc(C#N)cc1` (single isomer, unassigned) [104 Isomer 3], the IC50 came out at 415 nM.

`CC(CNC(C(=O)Nc1ccc(-c2cn[nH]c2)cn1)c1ccccc1)c1ccc(C#N)cc1` (single isomer, unassigned) [104 Isomer 4] had an IC50 of 1020 nM.

`C[C@H](CNC(C(=O)Nc1ccc(-c2ccn(C)c(=O)c2)cn1)c1ccccc1)c1ccc(C#N)cc1` (single isomer, unassigned) [105 Isomer 1]: the IC50 was above 2000 nM.

`C[C@H](CNC(C(=O)Nc1ccc(-c2cc(=O)n(C)cn2)cn1)c1ccccc1)c1ccc(C#N)cc1` (single isomer, unassigned) [106 Isomer 1]: the IC50 was above 2000 nM.

Take `C[C@H](CNC(C(=O)Nc1ccc(-c2cc(=O)n(C)cn2)cn1)c1ccccc1)c1ccc(C#N)cc1` (single isomer, unassigned) [106 Isomer 2]: half-maximal inhibition (IC50) was put at 25.5 nM.

In the case of `Cc1nc(-c2ccc(NC(=O)C(NC[C@@H](C)c3ccc(C#N)cc3)c3ccccc3)nc2)no1` (single isomer, unassigned) [107 Isomer 1], the IC50 was above 2000 nM.

`Cc1nc(-c2ccc(NC(=O)C(NC[C@@H](C)c3ccc(C#N)cc3)c3ccccc3)nc2)no1` (single isomer, unassigned) [107 Isomer 2] gave an IC50 of 72.3 nM.

`CC(CNC(C(=O)Nc1ccc(N2CCN(C)S2(=O)=O)cn1)c1ccccc1)c1ccc(C#N)cc1` (single isomer, unassigned) [108 Isomer 1] came in with an IC50 above 2000 nM.

With `CC(CNC(C(=O)Nc1ccc(N2CCN(C)S2(=O)=O)cn1)c1ccccc1)c1ccc(C#N)cc1` (single isomer, unassigned) [108 Isomer 2], it took 23.7 nM to reach half-maximal inhibition (IC50).

The compound `CC(CNC(C(=O)Nc1ccc(N2CCN(C)S2(=O)=O)cn1)c1ccccc1)c1ccc(C#N)cc1` (single isomer, unassigned) [108 Isomer 3] came in with an IC50 above 2000 nM.

`CC(CNC(C(=O)Nc1ccc(N2CCN(C)S2(=O)=O)cn1)c1ccccc1)c1ccc(C#N)cc1` (single isomer, unassigned) [108 Isomer 4] gave an IC50 above 2000 nM.

`C[C@H](CNC(C(=O)Nc1ccc(C2CC(=O)N(C)C2)cn1)c1ccccc1)c1ccc(C#N)cc1` (single isomer, unassigned) [109 Isomer 1]: the half-inhibitory concentration (IC50) is above 2000 nM.

`C[C@H](CNC(C(=O)Nc1ccc(C2CC(=O)N(C)C2)cn1)c1ccccc1)c1ccc(C#N)cc1` (single isomer, unassigned) [109 Isomer 2] had an IC50 above 2000 nM.

As to `C[C@H](CNC(C(=O)Nc1ccc(C2CC(=O)N(C)C2)cn1)c1ccccc1)c1ccc(C#N)cc1` (single isomer, unassigned) [109 Isomer 3], the IC50 was 61.3 nM.

`Cc1c(-c2ccc(NC(=O)C(NC[C@@H](C)c3ccc(C#N)cc3)c3ccccc3)nc2)cnn1C` (single isomer, unassigned) [114 Isomer 1] displayed an IC50 of 528 nM.

Turning to `Cc1cc(NC(=O)C(NC[C@@H](C)c2ccc(C#N)cc2)c2ccccc2)ncc1-c1cnn(C)c1` (single isomer, unassigned) [115 Isomer 1], the IC50 is above 2000 nM.

Compound `Cn1cc(-c2ccc(NC(=O)C(NCCc3ccc(C#N)cc3)c3cccc(C#N)c3)nc2)cn1` (single isomer, unassigned) [116 Isomer 1] yielded an IC50 of 443 nM.

As for `Cn1cc(-c2ccc(NC(=O)C(NCCc3ccc(C#N)cc3)c3cccc(C#N)c3)nc2)cn1` (single isomer, unassigned) [116 Isomer 2], the IC50 is above 2000 nM.

The compound `Cn1cc(-c2ccc(NC(=O)C(NCCc3ccc(C#N)cc3)c3cccc(C(F)(F)F)c3)nc2)cn1` (single isomer, unassigned) [117 Isomer 1] yielded an IC50 above 2000 nM.

Turning to `Cn1cc(-c2ccc(NC(=O)C(NCCc3ccc(C#N)cc3)c3cccc(C(F)(F)F)c3)nc2)cn1` (single isomer, unassigned) [117 Isomer 2], the IC50 was above 2000 nM.

For the compound `CCCCCCc1cccc(C(NCCc2ccc(C#N)cc2)C(=O)Nc2ccc(-c3cnn(C)c3)cn2)c1` (single isomer, unassigned) [118 Isomer 1], the IC50 was above 2000 nM.

`CCCCCCc1cccc(C(NCCc2ccc(C#N)cc2)C(=O)Nc2ccc(-c3cnn(C)c3)cn2)c1` (single isomer, unassigned) [118 Isomer 2] displayed an IC50 of 1900 nM.

`Cn1cc(-c2ccc(NC(=O)C(NCCc3ccc(C#N)cc3)c3ccc(C#N)cc3)nc2)cn1` (single isomer, unassigned) [119 Isomer 1] had an IC50 of 374 nM.

The compound `Cn1cc(-c2ccc(NC(=O)C(NCCc3ccc(C#N)cc3)c3ccc(C#N)cc3)nc2)cn1` (single isomer, unassigned) [119 Isomer 2] returned an IC50 of 1590 nM.

`Cn1cc(-c2ccc(NC(=O)C(NCCc3ccc(C#N)cc3)c3ccc(C(F)(F)F)cc3)nc2)cn1` (single isomer, unassigned) [120 Isomer 1] registered an IC50 above 2000 nM.

`Cn1cc(-c2ccc(NC(=O)C(NCCc3ccc(C#N)cc3)c3ccc(C(F)(F)F)cc3)nc2)cn1` (single isomer, unassigned) [120 Isomer 2] had an IC50 above 2000 nM.

`CCCCCCc1ccc(C(NCCc2ccc(C#N)cc2)C(=O)Nc2ccc(-c3cnn(C)c3)cn2)cc1` (single isomer, unassigned) [121 racemic] gave an IC50 above 2000 nM.

`Cn1cc(-c2ccnc(NC(=O)C(NCCc3ccc(C#N)cc3)c3ccccc3)c2)cn1` (single isomer, unassigned) [122 Isomer 1] yielded a 50% inhibitory concentration (IC50) above 60000 nM.
